# Results published in patent publication US20140107100A1, “Benzoxazepines as Inhibitors of PI3K/mTOR and Methods of Their Use and Manufacture” (EXELIXIS, INC., priority 2010, published 2014).
# Molecular target: mTOR/GbL/Raptor (mTORC1) (Homo sapiens, UniProt P42345)
# Assay: mTOR/GbL/Raptor (mTORC1) ELISA assay, phosphorylation of 4E-BP1
# Format: biochemical
# Conditions: 0.2 nM mTORC1, 40 uM ATP, 50 nM NHis-tagged 4E-BP1, 120 minutes; read-out: IC50 in this assay (mTORC1 ELISA)
# Experimental: The measurement of mTORC1 enzyme activity was performed in an ELISA assay format following the phosphorylation of 4E-BP1 protein. All experiments were performed in the 384-well format. Generally, 0.5 μL DMSO containing varying concentrations of the test Compound was mixed with 15 μL enzyme solution. Kinase reactions were initiated with the addition of 15 μL of substrates-containing solution. The assay conditions were-as follows; 0.2 nM mTORC1, 40 uM ATPand 50 nM NHis-tagged4E-BP1 in20 mM Hepes, pH 7.2, 1 mM DTT, 50 mMNaC1, 10 mM MnC12, 0.02 mg/mL BSA, 0.01% CHAPS, 50 mM β-glycerophosphate. Following an incubation of 120 minutes at anibient temperature, 20 μL of the reaction volume was transferred to a Ni-Chelate-coated 384-well plate. The binding step of the 4E-BP1 protein proceeded for 60 minutes, followed by washing 4 times each with 50 uL of Tris-buffered saline solution (TBS). Anti-phospho-4E-BPl rabbit-IgG ([…]. 1:5000) in 5% BSA-TBST (0.2% Tween-20 in TBS) was added and further incubated for 60 minutes. Incubation with a secondary HRP-tagged anti-IgG was similarly performed after washing off the primary antibody (4 washes of 50 μL). Following the final wash step with TBST, 20 μL of SuperSignal ELISA Femto (Pierce Biotechnology) was added and the luminescence measured using an En Vision plate reader.
row,Compound,IC50 [nM]
1,"Cc1cc(-c2cnc3sc(N)nc3c2)cc2c1OCCN(c1nc(CN(C)C)ncc1CC(F)(F)F)C2 [Compound 60, 6-(4-{2-[(dimethylamino)methyl]-5-(2,2,2-trifluoroethyl)pyrimidin-4-yl}-9-methyl-2,3,4,5-tetrahydro-1,4-benzoxazepin-7-yl)[1,3]thiazolo[5,4-b]pyridin-2-amine]",100 to 500
2,"Cc1cc(-c2cccc(O)c2)cc2c1OCCN(c1nc(N)nc(C)c1C(C)C)C2 [Compound 70, 3-{4-[2-amino-6-methyl-5-(1-methylethyl)pyrimidin-4-yl]-9-methyl-2,3,4,5-tetrahydro-1,4-benzoxazepin-7-yl}phenol]",100 to 500
3,"Cc1cc(-c2cncnc2)cc2c1OCCN(c1nc(N)nc(C)c1C(C)C)C2 [Compound 71, 4-methyl-5-(1-methylethyl)-6-(9-methyl-7-pyrimidin-5-yl-2,3-dihydro-1,4-benzoxazepin-4(5H)-yl)pyrimidin-2-amine]",100 to 500
4,"Cc1cc(-c2ccn[nH]2)cc2c1OCCN(c1nc(N)nc(C)c1C(C)C)C2 [Compound 72, 4-methyl-5-(1-methylethyl)-6-[9-methyl-7-(1H-pyrazol-5-yl)-2,3-dihydro-1,4-benzoxazepin-4(5H)-yl]pyrimidin-2-amine]",100 to 500
5,"Cc1cc(-c2ccc3c(c2)OCO3)cc2c1OCCN(c1nc(N)nc(C)c1C(C)C)C2 [Compound 73, 4-[7-(1,3-benzodioxol-5-yl)-9-methyl-2,3-dihydro-1,4-benzoxazepin-4(5H)-yl]-6-methyl-5-(1-methylethyl)pyrimidin-2-amine]",100 to 500
6,"COc1ccc(-c2cc(C)c3c(c2)CN(c2nc(N)nc(C)c2C(C)C)CCO3)cn1 [Compound 74, 4-methyl-5-(1-methylethyl)-6-{9-methyl-7-[6-(methyloxy)pyridin-3-yl]-2,3-dihydro-1,4-benzoxazepin-4(5H)-yl}pyrimidin-2-amine]",100 to 500
7,Cc1cc(-c2ccncc2)cc2c1OCCN(c1nc(N)nc(C)c1C(C)C)C2 [Compound 75],100 to 500
8,"Cc1cc(-c2cccnc2)cc2c1OCCN(c1nc(N)nc(C)c1C(C)C)C2 [Compound 76, 4-methyl-5-(1-methylethyl)-6-(9-methyl-7-pyridin-3-yl-2,3-dihydro-1,4-benzoxazepin-4(5H)-yl)pyrimidin-2-amine]",100 to 500
9,"Cc1cc(-c2cccc(C(N)=O)c2)cc2c1OCCN(c1nc(N)nc(C)c1C(C)C)C2 [Compound 77, 3-{4-[2-amino-6-methyl-5-(1-methylethyl)pyrimidin-4-yl]-9-methyl-2,3,4,5-tetrahydro-1,4-benzoxazepin-7-yl}benzamide]",100 to 500
10,"COc1ccc(-c2cc(C)c3c(c2)CN(c2nc(N)nc(C)c2C(C)C)CCO3)cc1OC [Compound 78, 4-{7-[3,4-bis(methyloxy)phenyl]-9-methyl-2,3-dihydro-1,4-benzoxazepin-4(5H)-yl}-6-methyl-5-(1-methylethyl)pyrimidin-2-amine]",100 to 500
11,"COc1cncc(-c2cc(C)c3c(c2)CN(c2nc(N)nc(C)c2C(C)C)CCO3)c1 [Compound 79, 4-methyl-5-(1-methylethyl)-6-{9-methyl-7-[5-(methyloxy)pyridin-3-yl]-2,3-dihydro-1,4-benzoxazepin-4(5H)-yl}pyrimidin-2-amine]",100 to 500
12,"Cc1cc(-c2cnc(N)nc2)cc2c1OCCN(c1nc(N)nc(C)c1C(C)C)C2 [Compound 81, 4-[7-(2-aminopyrimidin-5-yl)-9-methyl-2,3-dihydro-1,4-benzoxazepin-4(5H)-yl]-6-methyl-5-(1-methylethyl)pyrimidin-2-amine]",100 to 500
13,"COc1ncc(-c2cc(C)c3c(c2)CN(c2nc(N)nc(C)c2C(C)C)CCO3)cn1 [Compound 82, 4-methyl-5-(1-methylethyl)-6-{9-methyl-7-[2-(methyloxy)pyrimidin-5-yl]-2,3-dihydro-1,4-benzoxazepin-4(5H)-yl}pyrimidin-2-amine]",100 to 500
14,"Cc1cc(-c2ccnc(F)c2)cc2c1OCCN(c1nc(N)nc(C)c1C(C)C)C2 [Compound 83, 4-[7-(2-fluoropyridin-4-yl)-9-methyl-2,3-dihydro-1,4-benzoxazepin-4(5H)-yl]-6-methyl-5-(1-methylethyl)pyrimidin-2-amine]",100 to 500

# Second part, the compound after the results:
row,IC50 [nM],Compound
1,≤ 100,"Cc1cc(-c2cnc3sc(N)nc3c2)cc2c1OCCN(c1nc(CN3CCCC3)nc(C)c1C(C)C)C2 [Compound 59, 6-{9-methyl-4-[6-methyl-5-(1-methylethyl)-2-(pyrrolidin-1-ylmethyl)pyrimidin-4-yl]-2,3,4,5-tetrahydro-1,4-benzoxazepin-7-yl}[1,3]thiazolo[5,4-b]pyridin-2-amine]"
2,≤ 100,"CCc1c(Cl)nc(CN(C)C)nc1N1CCOc2c(C)cc(-c3cnc4sc(N)nc4c3)cc2C1 [Compound 61, 6-(4-{6-chloro-2-[(dimethylamino)methyl]-5-ethylpyrimidin-4-yl}-9-methyl-2,3,4,5-tetrahydro-1,4-benzoxazepin-7-yl)[1,3]thiazolo[5,4-b]pyridin-2-amine]"
3,≤ 100,"Cc1cc(-c2cnc3sc(N)nc3c2)cc2c1OCCN(c1nc(N)nc(Cl)c1C(C)C)C2 [Compound 62, 6-{4-[2-amino-6-chloro-5-(1-methylethyl)pyrimidin-4-yl]-9-methyl-2,3,4,5-tetrahydro-1,4-benzoxazepin-7-yl}[1,3]thiazolo[5,4-b]pyridin-2-amine]"
4,≤ 100,"Cc1cc(-c2cnc3sc(N)nc3c2)cc2c1OCCN(c1nc(CN(C)C)nc(Cl)c1C(C)C)C2 [Compound 63, 6-(4-{6-chloro-2-[(dimethylamino)methyl]-5-(1-methylethyl)pyrimidin-4-yl}-9-methyl-2,3,4,5-tetrahydro-1,4-benzoxazepin-7-yl)[1,3]thiazolo[5,4-b]pyridin-2-amine]"
5,≤ 100,"Cc1cc(-c2cnc3sc(N)nc3c2)cc2c1OCCN(c1nc(CO)nc(C)c1C(C)C)C2 [Compound 64, {4-[7-(2-amino[1,3]thiazolo[5,4-b]pyridin-6-yl)-9-methyl-2,3-dihydro-1,4-benzoxazepin-4(5H)-yl]-6-methyl-5-(1-methylethyl)pyrimidin-2-yl}methanol]"
6,≤ 100,"CCN(CC)Cc1nc(C)c(C(C)C)c(N2CCOc3c(C)cc(-c4cnc5sc(N)nc5c4)cc3C2)n1 [Compound 65, 6-(4-{2-[(diethylamino)methyl]-6-methyl-5-(1-methylethyl)pyrimidin-4-yl}-9-methyl-2,3,4,5-tetrahydro-1,4-benzoxazepin-7-yl)[1,3]thiazolo[5,4-b]pyridin-2-amine]"
7,≤ 100,"CCc1cnc(CN(C)C)nc1N1CCOc2c(C)cc(-c3cnc4sc(N)nc4c3)cc2C1 [Compound 66, 6-(4-{2-[(dimethylamino)methyl]-5-ethylpyrimidin-4-yl}-9-methyl-2,3,4,5-tetrahydro-1,4-benzoxazepin-7-yl)[1,3]thiazolo[5,4-b]pyridin-2-amine]"
8,≤ 100,"CCc1c(C)nc(CN(C)C)nc1N1CCOc2c(C)cc(-c3cnc4sc(N)nc4c3)cc2C1 [Compound 67, 6-(4-{2-[(dimethylamino)methyl]-5-ethyl-6-methylpyrimidin-4-yl}-9-methyl-2,3,4,5-tetrahydro-1,4-benzoxazepin-7-yl)[1,3]thiazolo[5,4-b]pyridin-2-amine]"
9,≤ 100,"Cc1cc(-c2cn[nH]c2)cc2c1OCCN(c1nc(N)nc(C)c1C(C)C)C2 [Compound 80, 4-methyl-5-(1-methylethyl)-6-[9-methyl-7-(1H-pyrazol-4-yl)-2,3-dihydro-1,4-benzoxazepin-4(5H)-yl]pyrimidin-2-amine]"
10,≤ 100,"Cc1cc(-c2cnc(N)s2)cc2c1OCCN(c1nc(N)nc(C)c1C(C)C)C2 [Compound 84, 4-[7-(2-amino-1,3-thiazol-5-yl)-9-methyl-2,3-dihydro-1,4-benzoxazepin-4(5H)-yl]-6-methyl-5-(1-methylethyl)pyrimidin-2-amine]"
11,≤ 100,"CCc1nc(CN(C)C)nc(N2CCOc3c(C)cc(-c4cnc5sc(N)nc5c4)cc3C2)c1CC [Compound 85, 6-(4-{2-[(dimethylamino)methyl]-5,6-diethylpyrimidin-4-yl}-9-methyl-2,3,4,5-tetrahydro-1,4-benzoxazepin-7-yl)[1,3]thiazolo[5,4-b]pyridin-2-amine]"
12,≤ 100,"Cc1cc(-c2cnc3sc(N)nc3c2)cc2c1OCCN(c1nc(S(C)(=O)=O)nc(C)c1C(C)C)C2 [Compound 86, 6-{9-methyl-4-[6-methyl-5-(1-methylethyl)-2-(methylsulfonyl)pyrimidin-4-yl]-2,3,4,5-tetrahydro-1,4-benzoxazepin-7-yl}[1,3]thiazolo[5,4-b]pyridin-2-amine]"
13,≤ 100,"Cc1cc(-c2cnc3sc(N)nc3c2)cc2c1OCCN(c1ncnc(C)c1C(C)C)C2 [Compound 87, 6-{9-methyl-4-[6-methyl-5-(1-methylethyl)pyrimidin-4-yl]-2,3,4,5-tetrahydro-1,4-benzoxazepin-7-yl}[1,3]thiazolo[5,4-b]pyridin-2-amine]"
14,≤ 100,"CCc1nc(CN(C)C)nc(N2CCOc3c(C)cc(-c4cnc5sc(N)nc5c4)cc3C2)c1C(C)C [Compound 88, 6-(4-{2-[(dimethylamino)methyl]-6-ethyl-5-(1-methylethyl)pyrimidin-4-yl}-9-methyl-2,3,4,5-tetrahydro-1,4-benzoxazepin-7-yl)[1,3]thiazolo[5,4-b]pyridin-2-amine]"
